“And” between values parts separate entries of the source, which are not always exact repeats. Identical values can stand only once. Like-named read-outs stand apart in the source and are kept apart here.
Experiments:
[1] = molecular target: T1, HIV reverse transcriptase (HIV-RT) (Human immunodeficiency virus type 1 group M subtype B, UniProt P04585); assay: HIV-RT assay (3H-TTP incorporation, modified assay of Okada et al.); assay type: biochemical
T1 construct: 1 unit/mL of HIV-RT (Worthington Biochemical Corp., Freehold, N.J.); purchased Worthington Biochemical Corp., Freehold, N.J
Method: Briefly, the analogues were initially dissolved in either DMSO or HEPES buffer (pH 7.2) and then diluted to the appropriate concentration before addition to the assay mixtures. […] Several control wells without any inhibitors were also included on each microtiter plate. The reactions were allowed to proceed for 1 h at 37° C. […] A more detailed description of reaction conditions is provided below in the Examples. The concentration of drug which inhibited 50% of the enzyme activity (IC50) was determined by using the computer software program Calcusyn, which plots the dose-effect curves from the inhibition data and calculates the IC50 for each drug.
(§1) The assay procedure described below is adapted from Okada et al. (Okada, H.; Mukai, H.; Inouye, Y; Nakamura, S. “Biological Properties of Streptonigrin Derivatives II. Inhibition of Reverse Transcriptase Activity,” J. Antibiot., 1986, 39, 306-308). The lavendamycin analogs were initially dissolved in DMSO at a concentration of 1 mg/mL. Occasionally, mild sonication and heat were used to dissolve the less soluble compounds. The dissolved analogs were then serially diluted in distilled water to achieve concentrations in the final reaction mixture ranging from 0.5-15 μM. In addition to the lavendamycin analogs, the final reaction mixture contained 100 mM Tris-HCl (pH 8.0), 5 mM MgCl2, 5 mM dithiothreitol, 60 mM NaCl, 0.2 mM [^3H] thymidine triphosphate(5 μCi well), 4 μg/mL poly (rA)-oligo(dT)12-18 (Amersham Pharmacia Biotech, Piscataway, N.J.) and 1 unit/mL of HIV-RT (Worthington Biochemical Corp., Freehold, N.J.) in a total volume of 300 μL. For each assay, the reaction mixture containing 8× buffer, double distilled H2O, ^3HTTP, template-primer and HIV-RT was pre-mixed in a 15-mL sterile tube in quantities required for the particular experiment. After adding the enzyme, the reaction mixture was mixed and kept on ice. The inhibitors, either AZT(Moravek Biochemicals, Brea, Calif.), analogs or both were added to appropriate wells in a 24 well microtiter plate and ddH2O was added to each well to bring the volume of all test wells to 100 μL. Two hundred μL of the chilled reaction mixture was then added to each of the test wells, mixed, and incubated for 1 hr at 37° C. Several control wells with no inhibitors were included on each test plate. After stopping the reactions with 25 μL 0.1 M EDTA, triplicate samples of 15 μL from each test well were spotted on DE81 ion exchange filter paper squares (Whatman Paper, Maidstone, England). After drying, each filter was washed for 10 minutes three times with 5% TCA-NHPO4, three times with 0.6M NaCl-[…] Na Citrate, one time with ddH2O and one time with 95% ethanol. After drying the individual filter papers were added to 5 mL Scintiverse E (Fisher Scientific, Chicago, Ill.) scintillation fluid and the amount of 3H-TTP uptake measured as counts per minute on a Beckman liquid scintillation counter. […] The results were then analyzed using Calcusyn, a windows software program for dose effect analysis designed by T. -C. Chou and M. P. Hayball and published by Biosoft® (UK).

tumor = assay: Antitumor activity (applicant's earlier studies)
HIV-RT = molecular target: T2, HIV-RT (Human immunodeficiency virus type 1 group M subtype B, UniProt P04585); assay: Two drug combination of AZT-TP and analogues at constant molar ratios in HIV-RT assay (CI and dose reduction index); assay type: biochemical
T2 construct: 1 unit/mL of HIV-RT (Worthington Biochemical Corp., Freehold, N.J.); purchased Worthington Biochemical Corp., Freehold, N.J
Text: In order to derive the dose reduction index of several of these compounds the method of Chou and Talalay was again employed using the classic isobologram technique. This method also involves the plotting of dose-effect curves for each agent as well as for multiply diluted fixed-ratio combinations of the agents.
The dose reduction index is a measure of how much the dose of each drug in a synergistic combination may be reduced at a given effect level compared with the doses of each drug alone.
as §1

BALB/c mice = assay: In vivo toxicity of analogue 19 in BALB/c mice; design: species or system mouse
Text: Analogue 19 was first solubilized in 10% dry DMSO, diluted in water, and given to the mice intraperitoneally in one dose or in two doses per day. Mice were weighed and observed for 3 days following treatment.

[2] = Water solubility in HEPES buffer solution; assay type: physicochemical
[3] = Mean IC50 ± SEM (no. of expts), 50% inhibition of HIV RT activity toward 1 unit of enzyme
[4] = 50% inhibition of HIV RT activity toward 1 unit of enzyme, read-out: Mean IC50 ± SEM (no. of expts)

| SMILES | IC50 [1, 3] [µM] | antitumor activity (tumor) | IC50 [1, 4] [µM] | IC50 ([1]; read-out: IC50 against HIV-RT) [µM] | dose reduction in combination with AZT-TP (HIV-RT) | CI at HIV-RT Inhibition of 50% (HIV-RT; molar ratio AZT:analogue 1:600) | CI at HIV-RT Inhibition of 70% (HIV-RT; molar ratio AZT:analogue 1:600) | Dose Reduction Index (50%) AZT-TP (HIV-RT; molar ratio AZT:analogue 1:600) | Dose Reduction Index (50%) analogue (HIV-RT; molar ratio AZT:analogue 1:600) | CI at HIV-RT Inhibition of 50% (HIV-RT; molar ratio AZT:analogue 1:857) | CI at HIV-RT Inhibition of 70% (HIV-RT; molar ratio AZT:analogue 1:857) | Dose Reduction Index (50%) AZT-TP (HIV-RT; molar ratio AZT:analogue 1:857) | Dose Reduction Index (50%) analogue (HIV-RT; molar ratio AZT:analogue 1:857) | Water solubility [2] | other results |
| --- | --- | --- | --- | --- | --- | --- | --- | --- | --- | --- | --- | --- | --- | --- | --- |
| COC(=O)c1nc(-c2ccc3c(n2)C(=O)C(NC(C)=O)=CC3=O)c2[nH]c3ccccc3c2c1C [Compound 11, 7-acetyllavendamycin methyl ester] | 15.1 ± 5.9 | highly active antitumor agents | – | – | – | – | – | – | – | – | – | – | – | – | – |
| CCCCCCCCOC(=O)c1cc2c([nH]c3ccccc32)c(-c2ccc3c(n2)C(=O)C(N)=CC3=O)n1 [Compound 20, Demethyllavendamycin n-Octyl Ester] | – | – | 7.1 ± 2.7 | < 8 | considerable dose reduction | 0.49 ± 0.17 | 0.40 ± .09 | 2.4 | 13.7 | – | – | – | – | – | CI at HIV-RT Inhibition of 50% (HIV-RT; molar ratio AZT:analogue 1:214): 0.46 ± 0.11; CI at HIV-RT Inhibition of 70% (HIV-RT; molar ratio AZT:analogue 1:214): 0.56 ± 0.22; Dose Reduction Index (50%) AZT-TP (HIV-RT; molar ratio AZT:analogue 1:214): 4.08; Dose Reduction Index (50%) analogue (HIV-RT; molar ratio AZT:analogue 1:214): 4.63 |
| CC(=O)NC1=CC(=O)c2ccc(-c3nc(C(N)=O)cc4c3[nH]c3ccccc34)nc2C1=O [Compound 16, 7-N-Acetyldemethyllavendamycin Amide] | 12.7 ± 5.2 | highly active antitumor agents | – | – | – | – | – | – | – | – | – | – | – | – | – |
| CC(=O)NC1=CC(=O)c2ccc(-c3nc(C(=O)OCCOP(=O)(O)O)cc4c3[nH]c3ccccc34)nc2C1=O [Compound 19] | – | – | – | – | considerable dose reduction | <0.1 ± 0.10 | <0.1 ± 0.16 | >100 | >100 | <0.1 ± 0.15 | 0.21 ± 0.18 | >40 | >15 | 0.05 mg/1 mL | inhibition at 15 µM ([1]; 15 μM): > 92%; IC50 ([1]; IC50 against HIV-RT): < 8 µM and 3 µM; survival and tolerability (BALB/c mice; 50 mg/kg as one ip injection): survived and tolerated; survival and tolerability (BALB/c mice; 75 mg/kg ip in two injections within twenty-four hours): survived and tolerated |
| CC(=O)NC1=CC(=O)c2ccc(-c3nc(C(=O)O)cc4c3[nH]c3ccccc34)nc2C1=O [Compound 18, 7-N-Acetyldemethyllavendamycin] | 13.3 ± 4.4 | – | – | – | considerable dose reduction | – | 1.35 ± 0.64 | 1.5 | 2.6 | – | 1.7 ± 1.49 | 1.7 | 2.0 | 0.05 mg/1 L | – |
| CCCCOC(=O)c1cc2c([nH]c3ccccc32)c(-c2ccc3c(n2)C(=O)C(NC(=O)CCC)=CC3=O)n1 [Compound 12, 7-N-n-Butyryidemethyllavendamycin n-Butyl Ester] | – | – | 5.8 ± 1.5 | < 8 | considerable dose reduction | 0.45 ± 0.06 | 0.32 ± 0.08 | 3.0 | 8.2 | 0.39 ± 0.06 | 0.32 ± 0.09 | 3.9 | 7.3 | – | – |

Source: patent US20060079497A1, “Lavendamycin analogues and methods of synthesizing and using lavendamycin analogues” (Ball State University, priority 2004, published 2006)
